Results from US9926369B2, “Methods for treating hepatocellular cancer by administering an anti-Ang-2 antibody” (Regeneron Pharmaceuticals, Inc., priority 2009, dated 2018).

How the values were obtained:
[1] = test system: COLO 205 (Human Colorectal Adenocarcinoma Cell Line) tumors; assay: COLO 205 mouse tumor model; assay type: in vivo, mice
Protocol: Briefly, 2×10^6COLO 205 cells in 100 μl of serum-free medium were injected subcutaneously into the flank of 6-8 week old male NCr nude mice (Taconic, Hudson, N.Y.). After tumor volumes reached an average of about 150 mm^3, mice were randomized into groups for treatment with antibody or Fc protein. Mice in each treatment group were administered an anti-Ang-2 antibody or Fc protein at a concentration of 4 mg/kg via intraperitoneal injection twice per week for approximately two weeks. Tumor volumes were measured twice per week over the course of the experiment and tumor weights were measured upon excision of tumors at the conclusion of the experiment. Averages (mean+/−standard deviation) of tumor weight and growth were calculated for each treatment group. “Avg. Tumor Growth” represents the average growth from the time of treatment initiation (when tumors were approximately 150 mm^3). Percent decrease of tumor weight and growth are calculated from comparison to Fc protein measurements.
A similar experiment was carried out to assess the effect of H1H685P, in particular, on COLO 205 tumor growth. Briefly, 2×10^6 COLO 205 cells in 100 μl of serum-free medium were implanted subcutaneously into the right hind flank of 9-11 week-old male SCID CB17 mice. When the tumors reached ˜125 mm^3, mice were randomized into 5 groups (n=7-8 mice/group) and treated twice per week with Fc protein (15 mg/kg), H1H685P (5 or 25 mg/kg) or Control II (5 or 25 mg/kg) for a period of 19 days. Tumor volumes were measured twice per week over the course of the experiment and tumor weights were measured upon excision of tumors at the end of the experiment. Averages of tumor weight and growth from the beginning of treatment were calculated for each group. Percent decrease of tumor weight and growth are calculated from comparison to the Fc control group.
To determine the effect of combining an anti-Ang-2 antibody with a VEGF inhibitor on the growth of COLO 205 xenografts, 2×10^6 cells were implanted subcutaneously into the right hind flank of 6-8 week-old female SCID mice. When the tumors reached an average volume of ˜350 mm^3, mice were randomized into 4 groups (n=6 mice/group) and treated with: human Fc protein (7.5 mg/kg), H1H685P (5 mg/kg), VEGF Trap (see U.S. Pat. No. 7,087,411) (2.5 mg/kg) or the combination of H1H685P+VEGF Trap. Mice were given a total of 3 doses over 10 days of treatment. Tumor volumes were measured twice per week over the course of the experiment. Averages of tumor growth from the start of treatment (mean+/−standard deviation) were calculated for each treatment group. Percent decrease of tumor growth was calculated from comparison to the Fc control group.
To test the effect of H1H685P in combination with a chemotherapeutic agent on tumor growth, 2.5×10^6 COLO 205 tumor cells were implanted subcutaneously into the right hind flank of 8-9 week-old male SCID mice. When the tumors reached an average volume of ˜150 mm^3 (day 17 after implantation), mice were randomized into 4 groups (n=5 mice/group) and treated as follows: the first group was treated sc with 15 mg/kg hFc and intraperitoneally (ip) with 5-FU vehicle; the second group was treated sc with 15 mg/kg of H1H685P; the third group was treated ip with 75 mg/kg of 5-FU; the fourth group was treated with the combination of 15 mg/kg H1H685P sc plus 75 mg/kg 5-FU ip. Mice received a total of three treatments, administered every 3-4 days. Tumor volumes were measured twice per week over the course of the experiment. Average (mean+/−standard deviation) tumor growth from the beginning of treatment until day 38 was calculated for each group. Percent decrease of tumor growth was calculated from comparison to the control group.

[2] = test system: MMT tumors; assay: MMT tumor growth in SCID mice; assay type: in vivo; conditions: H1H685P 12.5 mg/kg, VEGF Trap 5 mg/kg
Protocol: To provide additional evidence of combination efficacy, the effect of the H1H685P+VEGF Trap combination on the growth of MMT tumors was assessed. 0.5×10^6 MMT cells were implanted subcutaneously into the right hind flank of 6-8 week-old female SCID mice. […] The Fc and H1H685P groups were given 3 doses over 9 days. The VEGF Trap and combination groups were given 4 doses over 12 days. Tumor volumes were measured twice per week over the course of the experiment and tumor weights were measured upon excision of tumors at the end of the experiment (due to their large size, tumors from the Fc and H1H685P groups were collected 3 days before tumors from the VEGF Trap and combination groups). Averages (mean+/−standard deviation) of tumor growth from the beginning of treatment and of tumor weight were calculated for each group. Percent decrease of tumor weight and growth are calculated from comparison to the Fc control group.

[3] = test system: COLO 205 tumor vessel perfusion; assay: Tumor perfusion by contrast-enhanced micro-ultrasound, COLO 205 tumors; assay type: in vivo, mice; conditions: treated for 24 hrs
Protocol: To determine whether the combination of H1H685P+VEGF Trap has a greater effect on tumor vessel function than the single agents, a micro-ultrasound (VisualSonics' Vevo 770 imaging system) was used to assess changes in tumor perfusion. COLO 205 tumors were grown to ˜125 mm^3 and mice were then treated for 24 hrs with H1H685P, VEGF Trap or the combination of both agents. Following treatment, tumor vessel perfusion was determined based on contrast-enhanced micro-ultrasound 2D image acquisition and analysis of a “wash-in” curve, which represents the amount of contrast agent entering the tumor. Average (mean+/−standard deviation) tumor perfusion was calculated for each group. Percent decrease was calculated from comparison to the Fc control group.

[4] = COLO 205, male SCID mice, H1H685P 15 mg/kg sc, 5-FU 75 mg/kg ip, three treatments, until day 38
[5] = COLO 205, female SCID mice, H1H685P 5 mg/kg, VEGF Trap 2.5 mg/kg, 3 doses over 10 days

Row | Compound | % Decrease in Tumor Growth [1, 4] [%] | Avg Tumor Growth [1, 4] [mm^3] | % Decrease in Tumor Growth [1, 5] [%] | Avg Tumor Growth [1, 5] [mm^3] | Tumor regression (in words) ([1]; COLO 205, female SCID mice, end vs beginning of treatment) | % Decrease in Tumor Growth [2] [%] | % Decrease in Tumor Weight [2] [%] | Avg Tumor Growth [2] [mm^3] | Avg Tumor Weight [2] [g] | Relative Tumor Perfusion ([3]; mean ± SD) | % Decrease in Tumor Perfusion ([3]; vs Fc control) [%]
1 | O=c1[nH]cc(F)c(=O)[nH]1 [Antibody 5-FU, 5-FU, reference compound] | 45 | 313 ± 60 |  |  |  |  |  |  |  |  | 
2 | VEGF Trap: VEGF-inhibiting fusion protein: VEGF receptor extracellular domains fused to the Fc portion of human IgG1 [reference compound] |  |  | 117 | −62 ± 44 | tumor regression was observed | 60 | 44 | 536 ± 179 | 0.889 ± 0.141 | 6.99 ± 1.36 | 14
